{
  "source": "paper PMC7961786",
  "about": "“Magic Peptide: Unique Properties of the LRR11 Peptide in the Activation of Leukotriene Synthesis in Human Neutrophils” (International Journal of Molecular Sciences, 2021)",
  "key": {"[1]": {"tested_on": "human neutrophils, 5-LOX metabolites", "experiment": "5-LOX metabolite production in neutrophils without bacteria or other phagocytosis targets", "assay_type": "cell-based", "conditions": "in the absence of bacteria or other targets for phagocytosis", "method": "Human neutrophils synthesize 5-LOX metabolites (leukotriene B4 (LTB4) and its isomers, ω-OH-LTB4 and 5-HETE), during phagocytosis of opsonized zymosan or S. typhimurium bacteria. In the absence of bacteria or other targets for phagocytosis, treatment of neutrophils with ODNs listed in Table 1 or with LRR11, produce less than 1 ng of LTB4, its isomers, ω-OH-LTB4, and 5-HETE per 10^7 PMNLs. The potential of the LRR11 peptide and ODNs to regulate the synthesis of products catalyzed by 5-LOX was assessed after cell incubation with ODNs (+/−LRR11) followed by the addition of opsonized S. typhimurium bacteria (OS). To test whether neutrophil incubation with ODNs, LRR11 and bacteria affects cell viability, we assessed phosphatidylserine externalization and the integrity of neutrophil membranes after 20 min with ODNs (+/−LRR11) followed by 15 min with OS at 37 °C. The data obtained by flow cytometry using double Alexa Fluor-conjugated Annexin V/propidium iodide staining indicate that in our experiment the percentage of viable cells exceeds 96% (Figure S1).\nHuman neutrophils were isolated from freshly taken citrate-anticoagulated peripheral blood from healthy individuals using standard methods. Leukocyte-rich plasma was prepared by sedimentation of erythrocytes with 3% dextran T-500 at room temperature. […]"}, "PMNLs": {"tested_on": "PMNLs", "experiment": "Neutrophil adhesion to fibrinogen-coated plates", "assay_type": "cell-based, human", "conditions": "1 µM ODN +/- 1 µM LRR11, 20 min, 37 °C, n = 3, Figure S2a", "method": "Figure S2a. Effects of ODNs and LRR11 peptide on neutrophil adhesiveness. PMNLs (10^6 cells/probe in HBSS/HEPES) supplemented with 1 µM ODN +/- 1 µM LRR11, except for control samples containing HBSS/HEPES instead of ODNs, were incubated in fibrinogen-coated 24-well plates for 20 min at 37 °C in 5 % CO2. The supernatants were then carefully removed, and wells were washed twice with warm PBS to remove unattached cells. Adhesion quantitative assessment was carried out as described in [59]. Briefly, hydrogen peroxide (4 mM final concentration) in permeabilizing buffer (67 mM Na2HPO4, 35 mM citric acid, 0.1% Triton X-100) supplemented with 5.5 mM ortho-phenylenediamine was added to the attached PMNLs for 5 min. The reaction was stopped by adding of 1M H2SO4, followed by recording the absorption values at 492 nm and comparing them with the calibration values. Data are means ± SEM of attached cells amounts, as the percentages of PMNLs initially contained in the samples (n=3; *p < 0.05; **p < 0.01 in comparison with corresponding controls, as indicated by two-way ANOVA followed by Dunnett’s multiple comparison test). […]"}},
  "data": [
    {"sequence": "QLRKLNLSFNYQKRVSFAHLSLAPSFGSLV [LRR11, 30 amino acid peptide from leucine-rich repeat of TLR9]", "values": [
      {"measurement": "LTB4, its isomers, ω-OH-LTB4, and 5-HETE produced", "setting": "[1]", "result": "less than 1 ng per 10^7 PMNLs"},
      {"measurement": "effect on PMNL adhesion", "setting": "PMNLs", "result": "LRR11 did not affect this"}
    ]}
  ]
}
